Assay results taken from patent US20120329787A1, “FUNGICIDAL PYRANONES AND OXAZINONES” (E.I. DU PONT DE NEMOURS AND COMPANY, priority 2011, published 2012).
Marks after values point to notes of the source that are not given here.

Experiments:
Assay type in all cases: in vivo
Septoria nodorum = assay: Test E: Septoria glume blotch, spray on wheat seedlings the day before inoculation; conditions: for pest or weed control at 200 ppm: Parastagonospora nodorum, 264 h, read-out: Test E rating (100 = 100% disease control, 0 = no disease control)
From the text: General protocol for preparing test suspensions for Tests A-I: the test compounds were first dissolved in acetone in an amount equal to 3% of the final volume and then suspended at the desired concentration (in ppm) in acetone and purified water (50/50 mix by volume) containing 250 ppm of the surfactant Trem® 014 (polyhydric alcohol esters). The resulting test suspensions were then used in Tests A-I. Spraying a 200 ppm test suspension to the point of run-off on the test plants was the equivalent of a rate of 500 g/ha. […] (An asterisk “*” next to the rating value indicates a 40 ppm test suspension was used.) The test suspension was sprayed to the point of run-off on wheat seedlings. […] A dash (-) indicates no test results. All results are for 200 ppm except where followed by an asterisk “*”, which indicates a 40 ppm.

Botrytis cinerea = assay: Test A: tomato Botrytis, spray on tomato seedlings the day before inoculation; conditions: for pest or weed control at 200 ppm: Botrytis cinerea, 120 h, read-out: Test A rating (100 = 100% disease control, 0 = no disease control)
From the text: General protocol for preparing test suspensions for Tests A-I: the test compounds were first dissolved in acetone in an amount equal to 3% of the final volume and then suspended at the desired concentration (in ppm) in acetone and purified water (50/50 mix by volume) containing 250 ppm of the surfactant Trem® 014 (polyhydric alcohol esters). The resulting test suspensions were then used in Tests A-I. Spraying a 200 ppm test suspension to the point of run-off on the test plants was the equivalent of a rate of 500 g/ha. […] (An asterisk “*” next to the rating value indicates a 40 ppm test suspension was used.) The test suspension was sprayed to the point of run-off on tomato seedlings. The following day, the seedlings were inoculated with a spore suspension of Botrytis cinerea (the causal agent of tomato Botrytis) and incubated in a saturated atmosphere at 20° C. for 48 h, and then moved to a growth chamber at 24° C. for 3 additional days, after which time visual disease ratings were made. […] A dash (-) indicates no test results. All results are for 200 ppm except where followed by an asterisk “*”, which indicates a 40 ppm.

[1] = system: Puccinia recondita f. sp. tritici; assay: Test G: wheat leaf rust, spray on wheat seedlings after inoculation (curative); conditions: sprayed after inoculation; for pest or weed control at 200 ppm: Puccinia recondita, 96 h, read-out: Test G rating (100 = 100% disease control, 0 = no disease control)
From the text: General protocol for preparing test suspensions for Tests A-I: the test compounds were first dissolved in acetone in an amount equal to 3% of the final volume and then suspended at the desired concentration (in ppm) in acetone and purified water (50/50 mix by volume) containing 250 ppm of the surfactant Trem® 014 (polyhydric alcohol esters). The resulting test suspensions were then used in Tests A-I. Spraying a 200 ppm test suspension to the point of run-off on the test plants was the equivalent of a rate of 500 g/ha. […] (An asterisk “*” next to the rating value indicates a 40 ppm test suspension was used.) Wheat seedlings were inoculated with a spore suspension of Puccinia recondita f. sp. tritici (the causal agent of wheat leaf rust) and incubated in a saturated atmosphere at 20° C. for 24 h, and then moved to a growth chamber at 20° C. for 2 days. At the end of this time, the test suspension was sprayed to the point of run-off, and then the seedlings were moved to a growth chamber at 20° C. for 4 days after which time visual disease ratings were made. […] A dash (-) indicates no test results. All results are for 200 ppm except where followed by an asterisk “*”, which indicates a 40 ppm.

[2] = system: Erysiphe graminis f. sp. tritici; assay: Test I: wheat powdery mildew, spray on wheat seedlings the day before inoculation; conditions: 200 ppm test suspension; for pest or weed control at 200 ppm: Blumeria graminis, 168 h, read-out: Test I rating (100 = 100% disease control, 0 = no disease control)
From the text: General protocol for preparing test suspensions for Tests A-I: the test compounds were first dissolved in acetone in an amount equal to 3% of the final volume and then suspended at the desired concentration (in ppm) in acetone and purified water (50/50 mix by volume) containing 250 ppm of the surfactant Trem® 014 (polyhydric alcohol esters). The resulting test suspensions were then used in Tests A-I. Spraying a 200 ppm test suspension to the point of run-off on the test plants was the equivalent of a rate of 500 g/ha. […] (An asterisk “*” next to the rating value indicates a 40 ppm test suspension was used.) The test suspension was sprayed to the point of run-off on wheat seedlings. The following day, the seedlings were inoculated with a spore dust of Erysiphe graminis f. sp. tritici, (the causal agent of wheat powdery mildew) and incubated in a growth chamber at 20° C. for 7 days, after which time visual disease ratings were made. […] A dash (-) indicates no test results. All results are for 200 ppm except where followed by an asterisk “*”, which indicates a 40 ppm.

Septoria tritici = assay: Test F: wheat leaf blotch, spray on wheat seedlings the day before inoculation; conditions: for pest or weed control at 200 ppm: Zymoseptoria tritici, 504 h, read-out: Test F rating (100 = 100% disease control, 0 = no disease control)
From the text: General protocol for preparing test suspensions for Tests A-I: the test compounds were first dissolved in acetone in an amount equal to 3% of the final volume and then suspended at the desired concentration (in ppm) in acetone and purified water (50/50 mix by volume) containing 250 ppm of the surfactant Trem® 014 (polyhydric alcohol esters). The resulting test suspensions were then used in Tests A-I. Spraying a 200 ppm test suspension to the point of run-off on the test plants was the equivalent of a rate of 500 g/ha. […] (An asterisk “*” next to the rating value indicates a 40 ppm test suspension was used.) The test suspension was sprayed to the point of run-off on wheat seedlings. The following day, the seedlings were inoculated with a spore suspension of Septoria tritici (the causal agent of wheat leaf blotch) and incubated in a saturated atmosphere at 24° C. for 48 h, and then the seedlings were moved to a growth chamber at 20° C. for 19 additional days, after which time visual disease ratings were made. […] A dash (-) indicates no test results. All results are for 200 ppm except where followed by an asterisk “*”, which indicates a 40 ppm.

[3] = system: Puccinia recondita f. sp. tritici; assay: Test H: wheat leaf rust, spray on wheat seedlings the day before inoculation; conditions: sprayed before inoculation; for pest or weed control at 200 ppm: Puccinia recondita, 168 h, read-out: Test H rating (100 = 100% disease control, 0 = no disease control)
From the text: General protocol for preparing test suspensions for Tests A-I: the test compounds were first dissolved in acetone in an amount equal to 3% of the final volume and then suspended at the desired concentration (in ppm) in acetone and purified water (50/50 mix by volume) containing 250 ppm of the surfactant Trem® 014 (polyhydric alcohol esters). The resulting test suspensions were then used in Tests A-I. Spraying a 200 ppm test suspension to the point of run-off on the test plants was the equivalent of a rate of 500 g/ha. […] (An asterisk “*” next to the rating value indicates a 40 ppm test suspension was used.) The test suspension was sprayed to the point of run-off on wheat seedlings. The following day, the seedlings were inoculated with a spore suspension of Puccinia recondita f. sp. tritici (the causal agent of wheat leaf rust) and incubated in a saturated atmosphere at 20° C. for 24 h, and then moved to a growth chamber at 20° C. for 6 days, after which time visual disease ratings were made Results for Tests A-I are given in Table A. […] A dash (-) indicates no test results. All results are for 200 ppm except where followed by an asterisk “*”, which indicates a 40 ppm.

Alternaria solani = assay: Test B: tomato early blight, spray on tomato seedlings the day before inoculation; conditions: for pest or weed control at 200 ppm: Alternaria solani, 168 h, read-out: Test B rating (100 = 100% disease control, 0 = no disease control)
From the text: General protocol for preparing test suspensions for Tests A-I: the test compounds were first dissolved in acetone in an amount equal to 3% of the final volume and then suspended at the desired concentration (in ppm) in acetone and purified water (50/50 mix by volume) containing 250 ppm of the surfactant Trem® 014 (polyhydric alcohol esters). The resulting test suspensions were then used in Tests A-I. Spraying a 200 ppm test suspension to the point of run-off on the test plants was the equivalent of a rate of 500 g/ha. […] (An asterisk “*” next to the rating value indicates a 40 ppm test suspension was used.) The test suspension was sprayed to the point of run-off on tomato seedlings. The following day, the seedlings were inoculated with a spore suspension of Alternaria solani (the causal agent of tomato early blight) and incubated in a saturated atmosphere at 27° C. for 48 h, and then moved to a growth chamber at 20° C. for 5 days, after which time visual disease ratings were made. […] A dash (-) indicates no test results. All results are for 200 ppm except where followed by an asterisk “*”, which indicates a 40 ppm.

[4] = 40 ppm test suspension (asterisk)

Compound	pest or weed control at 200 ppm (Septoria nodorum; 200 ppm test suspension) [%]	pest or weed control at 200 ppm (Botrytis cinerea; 200 ppm test suspension) [%]	pest or weed control at 200 ppm ([1]; 200 ppm test suspension) [%]	pest or weed control at 200 ppm [2] [%]	pest or weed control at 200 ppm (Septoria tritici; 200 ppm test suspension) [%]	pest or weed control at 200 ppm ([3]; 200 ppm test suspension) [%]	pest or weed control at 200 ppm (Alternaria solani; 200 ppm test suspension) [%]	Test E rating (100 = 100% disease control, 0 = no disease control) (Septoria nodorum; 200 ppm test suspension) [%]	Test A rating (100 = 100% disease control, 0 = no disease control) (Botrytis cinerea; 200 ppm test suspension) [%]	Test G rating (100 = 100% disease control, 0 = no disease control) ([1]; 200 ppm test suspension) [%]	Test I rating (100 = 100% disease control, 0 = no disease control) [2] [%]	Test F rating (100 = 100% disease control, 0 = no disease control) (Septoria tritici; 200 ppm test suspension) [%]	Test H rating (100 = 100% disease control, 0 = no disease control) ([3]; 200 ppm test suspension) [%]	Test B rating (100 = 100% disease control, 0 = no disease control) (Alternaria solani; 200 ppm test suspension) [%]	Test E rating (100 = 100% disease control, 0 = no disease control) (Septoria nodorum; [4])	Test A rating (100 = 100% disease control, 0 = no disease control) (Botrytis cinerea; [4])	Test G rating (100 = 100% disease control, 0 = no disease control) [1, 4]	Test F rating (100 = 100% disease control, 0 = no disease control) (Septoria tritici; [4])	Test H rating (100 = 100% disease control, 0 = no disease control) [3, 4]	Test B rating (100 = 100% disease control, 0 = no disease control) (Alternaria solani; [4])
COc1cc(OC)c(Cl)c(-c2c(C)noc(=O)c2-c2c(F)cc(F)cc2F)c1 [Compound 25, 4-(2-chloro-3,5-dimethoxyphenyl)-3-methyl-5-(2,4,6-trifluorophenyl)-6H-1,2-oxazin-6-one]	0	100	100	100	100	100	97													
COc1cc(OC)cc(-c2c(-c3ccccc3F)noc(=O)c2-c2c(F)cc(F)cc2F)c1 [Compound 23, 4-(3,5-dimethoxyphenyl)-3-(2-fluorophenyl)-5-(2,4,6-trifluorophenyl)-6H-1,2-oxazin-6-one]	95	100	9	0	99	100	93													
COc1cccc(-c2c(-c3ccccc3F)c(C)oc(=O)c2-c2ccccc2)c1 [Compound 28]								0	100	0	64	98	99	0						
COc1cc(OC)cc(-c2c(C)oc(=O)c(C)c2-c2c(F)cc(OC)cc2F)c1 [Compound 43]								100	100	98	100	100	100	100						
Cc1oc(=O)c(-c2ccccc2F)c(-c2ccccc2Cl)c1-c1ccc(F)cc1F [Compound 35]											97				0* %	100* %	99* %	99* %	0* %	68* %
COc1cc(F)c(-c2c(C)oc(=O)c(C)c2-c2c(Cl)c(OC)cc(OC)c2Cl)c(F)c1 [Compound 44]								0	79	26	0	73	96	0						
COc1cccc(-c2c(-c3ccc(F)cc3F)c(C)oc(=O)c2-c2ccccc2F)c1 [Compound 34]								99	100	95	90	99	100	99						
4-(2-chloro-3,5-dimethoxyphenyl)-3,6-dimethyl-5-(2,4,6-trifluorophenyl)-2H-pyran-2-one [Compound 58]								100	100	100	100		100	100				100* %		
